Experimental findings from patent US7074796B2 (H. Lundbeck A/S, priority 1999, dated 2006) are described below.

The target in test [1] is T1, human cloned dopamine D4.2 receptors (Homo sapiens, UniProt P21917, DEL265-296).
T1 construct: expressed in transfected cells; host or cells: CHO cells
T1 sequence (P21917 with tags, fused parts or gaps DEL265-296): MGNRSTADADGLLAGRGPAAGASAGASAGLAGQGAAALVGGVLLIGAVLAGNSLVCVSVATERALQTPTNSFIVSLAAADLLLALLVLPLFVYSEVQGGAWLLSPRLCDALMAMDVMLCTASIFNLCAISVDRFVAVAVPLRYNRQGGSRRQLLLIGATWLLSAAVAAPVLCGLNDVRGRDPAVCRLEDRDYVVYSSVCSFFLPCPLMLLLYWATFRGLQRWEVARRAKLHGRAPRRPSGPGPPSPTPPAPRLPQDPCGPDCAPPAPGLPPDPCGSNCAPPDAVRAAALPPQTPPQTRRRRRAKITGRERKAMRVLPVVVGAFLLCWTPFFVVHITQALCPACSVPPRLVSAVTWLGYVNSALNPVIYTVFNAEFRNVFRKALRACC
In words: Inhibition of the binding of [3H]YM-09151-2 to human dopamine D4 receptors. To be noted: [3H]YM-09151-2 0.06 nM, membranes of CHO-cells; read-out: D4-bind. IC50. As for the experimental part:
Inhibition of the Binding of [^3H]YM-09151-2 to Human Dopamine D4 Receptors
By this method the inhibition by drugs of the binding of [^3H]YM-09151–2 (0.06 nM) to membranes of human cloned dopamine D4.2 receptors expressed in CHO-cells is determined in vitro. Method modified from NEN Life Science Products, Inc., technical data certificate PC2533-10/96.

The target in test [2] is T2, human cloned dopamine D3 receptors (Homo sapiens, UniProt P35462).
T2 construct: expressed in transfected cells; host or cells: CHO cells
In words: Inhibition of the binding of [3H]Spiperone to human D3 receptors. The settings on record: [3H]Spiperone 0.3 nM, membranes of CHO-cells; for pIC50: read-out: D3-bind. IC50. As for the experimental part: Inhibition of the Binding of [^3H]Spiperone to Human D3 Receptors
By this method the inhibition by drugs of the binding [^3H]Spiperone (0.3 nM) to membranes of human cloned dopamine D3 receptors expressed in CHO-cells is determined in vitro. Method modified from MacKenzie et al. Eur. J. Pharm.-Mol. Pharm. Sec. 1994, 266, 79–85.

Test [3] has as its system alpha-1 receptors. In words: Inhibition of binding of [3H]Prazosine to rat alpha-1 receptors. To be noted: [3H]Prazosine 0.25 nM, membranes from rat brain. The procedure:
Inhibition of Binding of [^3H]Prazosine to Rat Alpha-1 Receptors
By this method the inhibition by drugs of the binding of [^3H]Prazosine (0.25 nM) to alpha-1 receptors in membranes from rat brain is determined in vitro. Method modified from Hyttel et al. J. Neurochem. 1985, 44, 1615–1622.

pIC50: −log10 of the molar value.

T2 sequence (P35462 whole entry): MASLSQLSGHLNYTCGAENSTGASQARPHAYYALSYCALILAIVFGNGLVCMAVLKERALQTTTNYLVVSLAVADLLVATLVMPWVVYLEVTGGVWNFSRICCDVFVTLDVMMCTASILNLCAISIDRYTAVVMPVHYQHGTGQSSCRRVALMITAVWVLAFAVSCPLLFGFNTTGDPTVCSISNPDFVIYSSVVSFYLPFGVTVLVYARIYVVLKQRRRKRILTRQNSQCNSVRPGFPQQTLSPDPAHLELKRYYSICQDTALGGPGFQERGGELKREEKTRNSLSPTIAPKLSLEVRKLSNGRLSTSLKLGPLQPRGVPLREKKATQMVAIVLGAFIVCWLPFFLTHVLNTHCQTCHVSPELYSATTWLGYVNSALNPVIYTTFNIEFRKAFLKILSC

By pIC50 is commonly meant the negative decadic logarithm of the IC50, by convention in mol/L. For “5-[4-(2,3-Dichloro-phenyl)-piperazin-1-yl]-1-(3,4-dihydro-1H-isoquinolin-2-yl)propan-1-one [Compound 7f]”, the negative-log IC50 (pIC50) in test [1] is 7.59. Moreover, the “D3-bind. % inhibition of binding at 100 nM” value in test [2] (100 nM) amounted to 95%. In addition, in test [3], the “Alpha-1 % inhibition of binding at 100 nM” value (shortened to “Alpha-1 % inhibition”) is recorded as 34%.

As to `O=C(CCN1CCN(c2cccc(Cl)c2Cl)CC1)N1CCc2ccccc21` [Compound 1a, 3-[4-(2,3-Dichlorophenyl)piperazin-1-yl]-1-(2,3-dihydro-1H-indol-1-yl)propan-1-one], the pIC50 in test [1] is 8.48; in test [2] it was 7.00; in test [3], 7.23.

As for `O=C(CCCN1CCN(c2cccc(Cl)c2Cl)CC1)N1CCc2ccccc21` [Compound 1b, 4-[4-(2,3-Dichlorophenyl)piperazin-1-yl]-1-(2,3-dihydro-1H-indol-1-yl)butan-1-one], the pIC50 in test [1] is 8.55; in test [2] it was 8.52; in test [3], 5.96.

Regarding `O=C(CCCCN1CCN(c2cccc(Cl)c2Cl)CC1)N1CCc2ccccc21` [Compound 1c, 5-[4-(2,3-Dichlorophenyl)piperazin-1-yl]-1-(2,3-dihydro-1H-indol-1-yl)pentan-1-one], the pIC50 in test [1] was 7.41; in test [2], 8.00; in test [3] it was 6.80.

In the case of `O=C(CCCN1CCN(c2ccccc2Cl)CC1)N1CCc2ccccc21` [Compound 1d, 4-[4-(2-Chlorophenyl)piperazin-1-yl]-1-(2,3-dihydro-1H-indol-1-yl)butan-1-one], the pIC50 in test [1] is 9.04; in test [2], 7.70; in test [3], 7.01.

Regarding `O=C(CCCN1CCN(c2cccc(Cl)c2)CC1)N1CCc2ccccc21` [Compound 1e, 4-[4-(3-Chlorophenyl)piperazin-1-yl]-1-(2,3-dihydro-1H-indol-1-yl)butan-1-one], the results for the negative-log IC50 (pIC50) in test [1], in test [2] and in test [3] were 8.68, 7.30 and 7.77, respectively.

For `Clc1cccc(N2CCN(CCCN3CCc4ccccc43)CC2)c1Cl` [Compound 2a, 1-{3-[4-(2,3-Dichlorophenyl)piperazin-1-yl]propyl}-2,3-dihydro-1H-indole], the negative logarithm of the IC50 (pIC50) in test [1] is 8.74; in test [2], 7.51; in test [3], 7.17.

On to `Clc1cccc(N2CCN(CCCCN3CCc4ccccc43)CC2)c1Cl` [Compound 2b, 1-{4-[4-(2,3-Dichlorophenyl)piperazin-1-yl]butyl}-2,3-dihydro-1H-indole], for which the negative-log IC50 (pIC50) is 7.92 in test [1] and 8.51 in test [2]. For the same compound, in test [3], the “Alpha-1 % inhibition” value is given as 10%.

On to `Clc1cccc(N2CCN(CCCCCN3CCc4ccccc43)CC2)c1Cl` [Compound 2c, 1-{5-[4-(2,3-Dichlorophenyl)piperazin-1-yl]pentyl}-2,3-dihydro-1H-indole], for which the pIC50 is 7.74 in test [1], 7.66 in test [2] and 6.72 in test [3].

On to `Clc1ccccc1N1CCN(CCCCN2CCc3ccccc32)CC1` [Compound 2d, 1-{4-[4-(2-Chlorophenyl)piperazin-1-yl]butyl}-2,3-dihydro-1H-indole], for which the negative-log IC50 (pIC50) is 8.92 in test [1], 8.40 in test [2] and 7.51 in test [3].

Take `Clc1cccc(N2CCN(CCCCN3CCc4ccccc43)CC2)c1` [Compound 2e, 1-{4-[4-(3-Chlorophenyl)piperazin-1-yl]butyl}-2,3-dihydro-1H-indole]: the pIC50 in test [1] was 8.80; in test [2] it was 7.77; in test [3], 7.40.

Consider `Clc1cccc(N2CCN(CCCCC3CCc4ccccc43)CC2)c1Cl` (stereo not drawn) [Compound 3, 1-(2,3-Dichlorophenyl)-4-[4-(indan-1-yl)butyl]piperazine], for which the negative logarithm of the IC50 (pIC50) in test [1] was 7.96; in test [2] it was 8.17. Besides, the “Alpha-1 % inhibition” value in test [3] is listed as −3%.

Take `Clc1ccc2c(SCCN3CCN(c4cccc(Cl)c4Cl)CC3)c[nH]c2c1` [Compound 4, 6-Chloro-3-{2-[4-(2,3-dichlorophenyl)piperazin-1-yl]ethylsulfanyl}-1H-indole]: the negative logarithm of the IC50 (pIC50) is 6.30 in test [1], 7.40 in test [2] and 5.32 in test [3].
